Data from patent US5061728A, “Use of 4-phenyl-1,2,3,4-tetrahydro-1-naphthalenamine derivatives in the treatment of inflammation and as immunosuppressants” (Pfizer Inc., priority 1990, dated 1991).

Target: sigma receptors in brain tissue
Assay: In vitro binding: inhibition of (+)-[3H]3-PPP binding in rat whole brain membranes
Details: 3 nM (+)-[3H]3-PPP
Procedure: Affinity of disclosed compounds for sigma receptors in brain tissue was ascertained by the degree of inhibition of binding of the sigma site radioligand, (+)-[^3 H]3-(3-hydroxphenyl)-N-(1-propyl)piperidine ((+)-[^3 H]3-PPP) in competition experiments in vitro. These experiments were conducted by the method of Largent et al. Proc. Nat. Acad. Sec. […] Brains were removed from Sprague-DawleyCD male rats (Charles River Breeding Laboratories, Inc., Wilmington, Mass.; 200-300 g) following decapitation. Whole brain was homogenized in 25 volumes (v/w) of ice-cold 50 mM Tris (tris(hydroxymethyl)amino methane) hydrochloride pH 7.7 buffer using a Polytron PT-10 homogenizer. The pellet resulting from centrifugation of the homogenate at 45,000×g for 10 minutes at 0°-5° was washed twice by resuspension in the same volume of fresh buffer and recentrifugation. The final pellet was dispersed in 50 mM Tris hydrochloride pH 8.0 buffer (50 ml/g of original weight; "tissue preparation"). The incubation mixture in triplicate was comprised of 0.05 ml blank (10 μM pentazocine for nonspecific binding), test compound or vehicle; 0.20 ml (+)-[^3 H]3-PPP (110 Ci/mmol, NEN® DuPont; 3 nM final concentration) in 50 mM Tris hydrochloride pH 8.0 buffer; and 0.75 ml tissue preparation. The latter was added just prior to incubation of the mixture at 25° C. for 90 minutes. Afterwards, the mixture was diluted with 2.5 ml 10 mM Tris hydrochloride pH 7.7 buffer and filtered under vacuum through a Whatman GF/B glass-fiber filter (pretreated with 1% polyethyleneimine) in a Brandell cell harvester to recover the membranes. The filter was washed twice with the diluent buffer and placed in 10 ml Aquasol-2 (NEN® DuPont Co.) for determination of bound radioactivity in a liquid scintillation counter.

Row | Structure (SMILES) | IC50 (Table 1, racemates) | IC50 (Table 2, enantiomers)
1 | CN[C@H]1CC[C@H](c2ccc(Br)cc2)c2ccccc21 (relative stereo) [(±)-trans 4-Br NHCH3] | 85 nM | 
2 | CN(C)[C@H]1CC[C@@H](c2ccc(Cl)c(Cl)c2)c2ccccc21 (relative stereo) [(±)-cis 3,4-diCl N(CH3)2] | 44 nM | 
3 | CN(C)[C@H]1CC[C@H](c2ccc(Cl)c(Cl)c2)c2ccccc21 (relative stereo) [(±)-trans 3,4-diCl N(CH3)2] | 30 nM | 
4 | CN[C@H]1CC[C@H](c2cccc(C(F)(F)F)c2)c2ccccc21 (relative stereo) [(±)-trans 3-CF3 NHCH3] | 16 nM | 
5 | CN[C@H]1CC[C@@H](c2ccc(Cl)c(C(F)(F)F)c2)c2ccccc21 [(+)-1S, 4S 3-CF3,4-Cl NHCH3, Cis(1S) (4S)-N-methyl-4-(3-trifluoromethyl, 4-chloro-phenyl)-1,2,3,4-tetrahydro-1-naphthalenamine] |  | 17 nM
6 | CN[C@H]1CC[C@@H](c2ccc(Br)cc2)c2ccccc21 (relative stereo) [(±)-cis 4-Br NHCH3] | 13 nM | 
7 | CN[C@H]1CC[C@@H](c2ccc(Cl)c(C(F)(F)F)c2)c2ccccc21 (relative stereo) [(±)-cis 3-CF3,4-Cl NHCH3] | 11 nM | 
8 | CN(C)[C@H]1CC[C@@H](c2ccc(Cl)c(Cl)c2)c2ccccc21 [(+)-1S, 4S 3,4-diCl N(CH3)2, Cis(1S) (4S)-N,N-dimethyl-4-(3,4-dichlorophenyl)-1,2,3,4-tetrahydro-1-naphthalenamine] |  | 28 nM
9 | N[C@H]1CC[C@@H](c2ccc(Cl)c(Cl)c2)c2ccccc21 [(+)-1S, 4S 3,4-diCl NH2, Cis(1S) (4S)-amino-4-(3,4-dichlorophenyl)-1,2,3,4-tetrahydro-1-naphthalenamine] |  | 58 nM
10 | CN[C@H]1CC[C@H](c2ccc(F)cc2)c2ccccc21 (relative stereo) [(±)-trans 4-F NHCH3] | 66 nM | 
11 | CN[C@H]1CC[C@H](c2ccc(Cl)c(C(F)(F)F)c2)c2ccccc21 (relative stereo) [(±)-trans 3-CF3,4-Cl NHCH3] | 31 nM | 

Second part, the compound after the results:

Row | IC50 (Table 1, racemates) | IC50 (Table 2, enantiomers) | Structure (SMILES)
12 | 39 nM |  | CN[C@H]1CC[C@H](c2ccc(C(F)(F)F)cc2)c2ccccc21 (relative stereo) [(±)-trans 4-CF3 NHCH3]
13 |  | 8.7 nM | CN[C@H]1CC[C@@H](c2ccc(Cl)cc2)c2ccccc21 [(+)-1S, 4S 4-Cl NHCH3, Cis(1S) (4S)-N-methyl-4-(4-chlorophenyl)-1,2,3,4-tetrahydro-1-naphthalenamine]
14 | 75 nM |  | CN[C@H]1CC[C@H](c2ccc(Cl)cc2)c2ccccc21 (relative stereo) [(±)-trans 4-Cl NHCH3]
15 | 33 nM |  | CN[C@H]1CC[C@@H](c2ccc(Cl)cc2)c2ccccc21 (relative stereo) [(±)-cis 4-Cl NHCH3]
16 | 5.9 nM |  | CN[C@H]1CC[C@@H](c2ccc(C(F)(F)F)cc2)c2ccccc21 (relative stereo) [(±)-cis 4-CF3 NHCH3]
17 | 29 nM |  | CN[C@H]1CC[C@@H](c2ccc(Cl)cc2Cl)c2ccccc21 (relative stereo) [(±)-cis 2,4-diCl NHCH3]
